{
  "source": "ChEMBL document CHEMBL5154930",
  "about": "“Design, Synthesis, and Biological Evaluations of DOT1L Peptide Mimetics Targeting the Protein-Protein Interactions between DOT1L and MLL-AF9/MLL-ENL” (J Med Chem, 2022)",
  "key": {"[1]": {"test_system": "MOLM-13", "test": "Down regulation of CDK6 gene in human MOLM-13 cells by RNA-sequencing analysis", "format": "functional, cell-based"}, "[2]": {"test_system": "MOLM-13", "test": "Down regulation of ARID1B gene in human MOLM-13 cells by RNA-sequencing analysis", "format": "functional, cell-based"}, "[3]": {"test_system": "MOLM-13", "test": "Down regulation of HOXA9 gene in human MOLM-13 cells by RNA-sequencing analysis", "format": "functional, cell-based"}, "[4]": {"test_system": "MOLM-13", "test": "Down regulation of TUBA1B gene in human MOLM-13 cells by RNA-sequencing analysis", "format": "functional, cell-based"}, "[5]": {"test_system": "MOLM-13", "test": "Down regulation of ARID2 gene in human MOLM-13 cells by RNA-sequencing analysis", "format": "functional, cell-based"}, "[6]": {"test_system": "MOLM-13", "test": "Down regulation of JMJD1C gene in human MOLM-13 cells by RNA-sequencing analysis", "format": "functional, cell-based"}, "[7]": {"test_system": "MOLM-13", "test": "Down regulation of HOXA3 gene in human MOLM-13 cells by RNA-sequencing analysis", "format": "functional, cell-based"}, "[8]": {"target": "T1, Protein AF-9 (Homo sapiens, UniProt P42568)", "T1 sequence (P42568 whole entry)": "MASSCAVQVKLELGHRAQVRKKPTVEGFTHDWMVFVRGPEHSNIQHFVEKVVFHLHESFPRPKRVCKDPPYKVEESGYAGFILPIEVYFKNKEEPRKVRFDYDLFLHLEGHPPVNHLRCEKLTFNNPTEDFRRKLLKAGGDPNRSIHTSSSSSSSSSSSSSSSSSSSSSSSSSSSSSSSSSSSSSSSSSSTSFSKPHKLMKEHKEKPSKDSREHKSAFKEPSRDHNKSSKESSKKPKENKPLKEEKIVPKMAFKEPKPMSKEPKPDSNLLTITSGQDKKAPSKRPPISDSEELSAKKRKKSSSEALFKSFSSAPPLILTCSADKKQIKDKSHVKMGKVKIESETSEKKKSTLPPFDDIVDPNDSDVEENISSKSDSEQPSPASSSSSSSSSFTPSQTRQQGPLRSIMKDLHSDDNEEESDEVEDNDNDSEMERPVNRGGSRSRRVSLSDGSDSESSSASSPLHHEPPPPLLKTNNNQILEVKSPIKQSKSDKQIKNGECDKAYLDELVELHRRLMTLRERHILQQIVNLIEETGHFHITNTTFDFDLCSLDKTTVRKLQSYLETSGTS", "test": "Binding affinity to MBP-tagged human recombinant AF9 (487 to 568 residues) incubated for 40 mins by measuring fluorescence polarization by microplate reader method"}, "[9]": {"test_system": "MOLM-13", "test": "Induction of apoptosis in human MOLM-13 cells treated for 7 days by Annexin V-FITC/PI staining based flow cytometry analysis", "format": "functional, cell-based", "conditions": "dose 0.25-1 µM, time 7.0 day"}, "[10]": {"test_system": "MOLM-13", "test": "Induction of apoptosis in human MOLM-13 cells at 0.25 to 1 uM assessed as cleaved Caspase-3 by Annexin V-FITC/PI staining based flow cytometry analysis", "format": "functional, cell-based", "conditions": "dose 0.25-1 µM"}, "[11]": {"test_system": "MOLM-13", "test": "Down regulation of HPGD gene in human MOLM-13 cells by RNA-sequencing analysis", "format": "functional, cell-based"}, "[12]": {"test_system": "MOLM-13", "test": "Inhibition of methylation of H3K79 in human MOLM-13 cells assessed as inhibition of methylation at HOXA1 gene cluster by chromatin immunoprecipitation assay", "format": "functional, cell-based"}, "[13]": {"test_system": "MOLM-13", "test": "Inhibition of methylation of H3K79 in human MOLM-13 cells assessed as inhibition of methylation at […] gene cluster by chromatin immunoprecipitation assay", "format": "functional, cell-based"}, "[14]": {"test_system": "MOLM-13", "test": "Inhibition of methylation of H3K79 in human MOLM-13 cells assessed as inhibition of methylation at HOXA2 gene cluster by chromatin immunoprecipitation assay", "format": "functional, cell-based"}, "[15]": {"test_system": "MOLM-13", "test": "Inhibition of methylation of H3K79 in human MOLM-13 cells assessed as inhibition of methylation at HOXA-AS2 gene cluster by chromatin immunoprecipitation assay", "format": "functional, cell-based"}, "[16]": {"test_system": "MOLM-13", "test": "Inhibition of methylation of H3K79 in human MOLM-13 cells assessed as inhibition of methylation at MEIS1-AS3 gene cluster by chromatin immunoprecipitation assay", "format": "functional, cell-based"}, "[17]": {"test_system": "MOLM-13", "test": "Inhibition of methylation of H3K79 in human MOLM-13 cells assessed as inhibition of methylation at MEIS1 gene cluster by chromatin immunoprecipitation assay", "format": "functional, cell-based"}, "[18]": {"test_system": "MOLM-13", "test": "Down regulation of MEF2C gene in human MOLM-13 cells by RNA-sequencing analysis", "format": "functional, cell-based"}, "[19]": {"test_system": "MOLM-13", "test": "Down regulation of PBX3 gene in human MOLM-13 cells by RNA-sequencing analysis", "format": "functional, cell-based"}, "[20]": {"test_system": "MOLM-13", "test": "Down regulation of GATA2 gene in human MOLM-13 cells by RNA-sequencing analysis", "format": "functional, cell-based"}, "[21]": {"test_system": "MOLM-13", "test": "Down regulation of AC011043.1 gene in human MOLM-13 cells by RNA-sequencing analysis", "format": "functional, cell-based"}, "[22]": {"test_system": "MOLM-13", "test": "cells", "conditions": "Homo sapiens, MOLM-13, 192 h", "description": "Anticancer activity against human MOLM-13 cells harbouring MLL-AF9 assessed as inhibition of cell growth treated for 8 days measured by CCK-8 kit method"}},
  "note": "pIC50, pKi: −log10 of the molar value. Active and inactive are the calls of the source. No cut-off for these calls is given here. Non-standard residues stand in square brackets, D forms with d. Residues, ends and D or L forms follow the SMILES beside them. *: point of attachment. X1 = C[C@H](N*)c1nc2cccc(-c3ccccc3)c2[nH]1; Ala(cPent) = N[C@@H](CC1CCCC1)C(=O)O; Pentanoyl(4-Me) = CC(C)CCC(=O)*; Dap(Me) = CNC[C@H](N)C(=O)O",
  "data": [
    {"smiles": "CNC[C@H](NC(=O)[C@@H](NC(=O)[C@@H]1CCCN1C(=O)CCC(C)C)C(C)C)C(=O)N[C@@H](CC1CCCC1)C(=O)N[C@@H](C)c1nc2cccc(-c3ccccc3)c2[nH]1", "note": "({Pentanoyl(4-Me)}-PV[Dap(Me)][Ala(cPent)]-X1)", "values": [
      {"measurement": "Activity", "setting": "[1]", "value": "Active"},
      {"measurement": "Activity", "setting": "[2]", "value": "Active"},
      {"measurement": "Activity", "setting": "[3]", "value": "Active"},
      {"measurement": "Activity", "setting": "[4]", "value": "Active"},
      {"measurement": "Activity", "setting": "[5]", "value": "Active"},
      {"measurement": "Activity", "setting": "[6]", "value": "Active"},
      {"measurement": "Activity", "setting": "[7]", "value": "Active"},
      {"measurement": "pKi", "setting": "[8]", "value": 8.05},
      {"measurement": "Activity", "setting": "[9]", "value": "Active"},
      {"measurement": "Activity", "setting": "[10]", "value": "Active"},
      {"measurement": "Activity", "setting": "[11]", "value": "Active"},
      {"measurement": "inhibition", "setting": "[12]", "value": "Active"},
      {"measurement": "inhibition", "setting": "[13]", "value": "Active"},
      {"measurement": "inhibition", "setting": "[14]", "value": "Active"},
      {"measurement": "inhibition", "setting": "[15]", "value": "Active"},
      {"measurement": "inhibition", "setting": "[16]", "value": "Active"},
      {"measurement": "inhibition", "setting": "[17]", "value": "Active"},
      {"measurement": "Activity", "setting": "[18]", "value": "Active"},
      {"measurement": "Activity", "setting": "[19]", "value": "Active"},
      {"measurement": "Activity", "setting": "[20]", "value": "Active"},
      {"measurement": "Activity", "setting": "[21]", "value": "Active"},
      {"measurement": "pIC50", "setting": "[22]", "value": 7.15}
    ]}
  ]
}
